Results on 77 sequences are retold here after the OligoGym collection.

In the series the target is HSD17B13. The settings on record: ASO, HepaRG.

After the bases stand the sugars from the 5' end (letter, count) and the backbone: PS all phosphorothioate, else s phosphorothioate and o phosphodiester by linkage. Methylation of C is not given here. e = 2'-O-(2-methoxyethyl) (MOE); k = constrained ethyl (cEt); d = 2'-deoxy (DNA); m = 2'-O-methyl

For “GTCTACCTCTAAGTTA (sugars k3 d9 k3 e1, PS)”, the target mRNA inhibition (1 µM) came to 41%.
On the same count and under the same terms, for “GTCTUAAACCTTCCCT (sugars k3 d1 m1 d8 k3, PS)” the value was 35%; for GTGACATAACTACTTC (sugars k3 d10 k3, PS), 68%.
In the case of GTGATTGAGTTCTCCA (sugars k3 d10 k3, PS), the target mRNA inhibition turned out to be 10% (0.02 µM); 14% (0.078 µM); 32% (0.313 µM); 80% (1 µM); 73% (1.25 µM); 83% (5 µM).
As for “GTGCATCTTAAGATAC (sugars kkdddddddddkekek, PS)”, under “1 µM”, the target mRNA inhibition came out at 20%.
The same measure, in the same setting: for “GTGCCAAACCAATGTT (sugars kkdddddddddkekek, PS)” the value was 38%.
Same read-out and setting: for GTGCTTTTGTGATCCA (sugars k3 d10 k3, PS) the value was 62%.
The same measure, in the same setting: under “GTGGCATGGCTACAGA (sugars k3 d9 k3 e1, PS)” stands 38%; under GTGGCCATGATTTCTC (sugars k3 d10 k3, PS), 40%.
With GTGGCCGCACACTGAA (sugars k3 d10 k3, PS), the target mRNA inhibition (1 µM) was 41%.
As to GTGTTAGCTTTAATTT (sugars k3 d10 k3, PS), the target mRNA inhibition (1 µM) was 48%.
Still for that read-out and setting: under “GTGTTCTTGTTGATAT (sugars k3 d9 k3 e1, PS)” stands 66%; under GTGTTTACAAGTAAGA (sugars k3 d10 k3, PS), 79%; under “GTGTUCTTGTTGATAT (sugars k3 d1 m1 d8 k3, PS)”, 52%.
On to GTTACATTACAGCCTT (sugars k3 d10 k3, PS), for which the target mRNA inhibition worked out at 0% (0.02 µM); 18% (0.078 µM); 50% (0.313 µM); 71% (1 µM); 73% (1.25 µM); 86% (5 µM).
In turn, GTTATACAGAAGACAG (sugars k3 d10 k3, PS) displayed a target mRNA inhibition (1 µM) of 54%.
On the same count and under the same terms, for GTTATTAGAAGTCAGC (sugars k3 d10 k3, PS) the value was 56%.
Still for that read-out and setting: under “GTTATTCTCTTGACAA (sugars kkdddddddddkekek, PS)” stands 27%; under GTTCAACTGAACCTCT (sugars k3 d10 k3, PS), 55%.
Same read-out and setting: under “GTTCTTGTTGATATTC (sugars k3 d9 k3 e1, PS)” stands 69%.
Regarding “GTTGAGATAAAGCTGC (sugars k3 d9 k3 e1, PS)”, the target mRNA inhibition (1 µM) turned out to be 59%.
GTTGAGATAAAGCTGC (sugars k3 d10 k3, PS) registered a target mRNA inhibition (1 µM) of 54%.
The same measure, in the same setting: for “GTTGCACCGTTTTGGG (sugars k3 d1 m1 d8 k3, PS)” the value was 38%; for GTTTACTCACTTCTGG (sugars k3 d10 k3, PS), 29%.
On the same count and under the same terms, under GTTTAGCTGATAGGCT (sugars k3 d10 k3, PS) stands 47%.
The same measure, in the same setting: under GTTTCAACTAAACATG (sugars k3 d10 k3, PS) stands 65%.
Regarding GTTTCCTCCACACCGC (sugars k3 d10 k3, PS), the target mRNA inhibition (1 µM) turned out to be 45%.
On the same count and under the same terms, under GTTTCTAGGTCAGTAG (sugars k3 d10 k3, PS) stands 73%; under GTTTCTTATGTAATAG (sugars k3 d10 k3, PS), 46%; under “GTTTCTTATGTAATAG (sugars kkdddddddddkekek, PS)”, 21%.
As for “GTTTCTTATGTAATAG (sugars kkkddddkddddkkke, PS)”, the target mRNA inhibition (1 µM) was found to be 44%.
Still for that read-out and setting: for GTTTGACTGCTGCTAG (sugars k3 d10 k3, PS) the value was 58%.
On the same count and under the same terms, for GTTTTCGGCACTCAGC (sugars k3 d10 k3, PS) the value was 51%; for GTTTTTAAGAGGCATG (sugars k3 d10 k3, PS), 63%.
Regarding “GTTTTTAAGAGGCATG (sugars kkdddddddddkekek, PS)”, the target mRNA inhibition runs as follows: (0.02 µM) 15%; (0.078 µM) 13%; (0.313 µM) 12%; (1 µM) 79%; (1.25 µM) 61%; (5 µM) 71%.
As to GTTTTTTGAACCGTAT (sugars k3 d10 k3, PS), the target mRNA inhibition stood at 0% (0.02 µM); 0% (0.078 µM); 9% (0.313 µM); 71% (1 µM); 56% (1.25 µM); 74% (5 µM).
“GTTTUGGGCTAATGAA (sugars k3 d1 m1 d8 k3, PS)” showed a target mRNA inhibition (1 µM) of 30%.
Same read-out and setting: for TAAAAATTGGCCTCCT (sugars k3 d10 k3, PS) the value was 29%.
With TAAAATAGAGTCGGTC (sugars k3 d10 k3, PS), the target mRNA inhibition runs as follows: (0.02 µM) 1%; (0.078 µM) 9%; (0.313 µM) 47%; (1 µM) 81%; (1.25 µM) 80%; (5 µM) 90%.
Turning to TAAACATCTCTGGGAC (sugars k3 d10 k3, PS), the target mRNA inhibition (1 µM) was 51%.
On the same count and under the same terms, under “TAAACCTTCCCTGTGT (sugars kkdddddddddkekek, PS)” stands 9%.
The same measure, in the same setting: under TAAATTACTCCGTTCT (sugars k3 d10 k3, PS) stands 36%.
Regarding TAACATTCGGCTAGGC (sugars k3 d10 k3, PS), the target mRNA inhibition (1 µM) is 52%.
Same read-out and setting: for TAACTCTATTGATTGG (sugars k3 d10 k3, PS) the value was 51%; for “TAAGAGGCATGAAAGG (sugars k3 d1 m1 d8 k3, PS)”, 50%.
The same measure, in the same setting: under TAAGAGTCAGTATCCT (sugars k3 d10 k3, PS) stands 52%.
The same measure, in the same setting: for “TAAGATACCCAGGTTG (sugars kkdddddddddkekek, PS)” the value was 30%; for TAAGCAGAATTGTGAA (sugars k3 d10 k3, PS), 35%; for TAAGGAGTAGTGGAGC (sugars k3 d10 k3, PS), 18%.
TAAGGCAAAGATCTGG (sugars k3 d10 k3, PS) returned a target mRNA inhibition (1 µM) of 46%.
Take TAAGTTACCAGAGCAT (sugars k3 d10 k3, PS): the target mRNA inhibition stood at 0% (0.02 µM); 0% (0.078 µM); 30% (0.313 µM); 77% (1 µM); 71% (1.25 µM); 91% (5 µM).
Where the note is “1 µM”, TAATACATTAGCAAGC (sugars k3 d10 k3, PS) yielded a target mRNA inhibition of 33%.
Under “1 µM”, “TAATACATTAGCAAGC (sugars kkdddddddddkekek, PS)” returned a target mRNA inhibition of 34%.
Same read-out and setting: under TAATAGCCAGTACAGT (sugars k3 d10 k3, PS) stands 64%; under TAATCACAAGTAAGGT (sugars k3 d10 k3, PS), 54%; under TAATGAATCATGATTG (sugars k3 d10 k3, PS), 2%.
The same measure, in the same setting: for TAATTGCATCTGCTCG (sugars k3 d10 k3, PS) the value was 46%.
Turning to TAATTTTCAGATCCCG (sugars k3 d10 k3, PS), the target mRNA inhibition was found to be 0% (0.02 µM); 9% (0.078 µM); 41% (0.313 µM); 75% (1 µM); 62% (1.25 µM); 89% (5 µM).
TAATTTTCGGGTTCTT (sugars k3 d10 k3, PS): the target mRNA inhibition (1 µM) came out at 40%.
The same measure, in the same setting: for TACAACCTGGTTTCAT (sugars k3 d10 k3, PS) the value was 25%; for “TACAGATTGGAATGCT (sugars k3 d9 k3 e1, PS)”, 66%.
Still for that read-out and setting: for TACAGGCCATAATCTT (sugars k3 d10 k3, PS) the value was 16%; for TACATTAGCAAGCTAA (sugars k3 d10 k3, PS), 29%; for TACCAGAGCATTCATC (sugars k3 d10 k3, PS), 55%.
The same measure, in the same setting: for TACCTCTAAGTTAGCC (sugars k3 d10 k3, PS) the value was 28%.
TACCTTATTAATATCC (sugars k3 d10 k3, PS) displayed a target mRNA inhibition (1 µM) of 54%.
The same measure, in the same setting: under TACTGTCCCAGCATTA (sugars k3 d10 k3, PS) stands 21%; under “TACTTGAACAGTCTTA (sugars k3 d9 k3 e1, PS)”, 65%; under TACTTGAACAGTCTTA (sugars k3 d10 k3, PS), 48%.
Same read-out and setting: under TAGAATACGCTGAGAG (sugars k3 d10 k3, PS) stands 47%.
As for TAGAATAGTCTTCAGC (sugars k3 d10 k3, PS), the target mRNA inhibition was 0% (0.02 µM); 0% (0.078 µM); 16% (0.313 µM); 70% (1 µM); 52% (1.25 µM); 77% (5 µM).
Sequence TAGAGGGTCCACTTTT (sugars k3 d10 k3, PS) gave a target mRNA inhibition (1 µM) of 36%.
The same measure, in the same setting: for TAGAGTCGGTCACCTT (sugars k3 d10 k3, PS) the value was 65%.
As to TAGAGTGAATCATTCA (sugars k3 d10 k3, PS), the target mRNA inhibition reads like this: (0.02 µM) 16%; (0.078 µM) 33%; (0.313 µM) 60%; (1 µM) 75%; (1.25 µM) 84%; (5 µM) 92%.
For the setting “1 µM”, TAGCAAAACACTTGCT (sugars k3 d10 k3, PS) registered a target mRNA inhibition of 21%.
The same measure, in the same setting: for TAGCAAGCCAACAGAG (sugars k3 d10 k3, PS) the value was 21%; for TAGCAATTTAGCAAGA (sugars k3 d10 k3, PS), 54%.
